The subject of this data set is SH-SY5Y neuroblastoma cells. Nature of the data set: Cytotoxicity in SH-SY5Y cells (MTT assay). Format: cell-based, human. To be noted: 48 h, dose range 0.1 to 100 μM. The method, then:
Initially, the cytotoxicity of the target compounds was assessed by treating SH-SY5Y cells for 48 h with various concentrations of compounds (0.1 to 100 μM).
SH-SY5Y neuroblastoma cells (cat. CRL-2266, ATCC) were cultured in a 1:1 mixture of Eagle’s Minimum Essential Medium (cat. 15-010-CVR, Corning) and Ham’s F12 medium (cat. 10-080-CVR, Corning). This medium was supplemented with 10% (v/v) Fetal Bovine Serum (cat. 35-079-CV, Corning), 1% (v/v) Glutamine (cat. ECB3000D, Euro Clone) and 1% (v/v) Penicillin—Streptomycin (cat.30-002-CI, Corning). Cells were cultivated at 37 °C with 5% CO2 at saturated humidity.
Determination of cell growth was performed using the MTT assay at 48 h. On day 1, 25,000 cells/well were seeded into 96-well plates in a volume of 100 μL. On day 2, the various drug concentrations ([…]–100 μM) were added. In all the experiments, the various drug-solvents (EtOH, DMSO) were added in each control to evaluate possible solvent cytotoxicity. After the established incubation time with drugs (48 h), MTT (0.5 mg/mL) was added to each well, and after 3–4 h incubation at 37 °C, the supernatant was removed. The formazan crystals were solubilized using 100 μL of DMSO/EtOH (1:1, v/v) and the absorbance values at 570 and 630 nm were determined on the microplate reader Victor 3 (PerkinElmer Life Sciences, Waltham, MA, USA).

From article PMC8877291, “Design and Synthesis of Arylpiperazine Serotonergic/Dopaminergic Ligands with Neuroprotective Properties” (Molecules, 2022) come the findings set out here.

The structures appear in SMILES notation.

With `Cn1c(=O)cnn(CCCCN2CCN(c3ncccc3-c3ccncc3)CC2)c1=O` [Compound 11b, 2-(4-(4-([3,4’-Bipyridin]-2-yl)piperazin-1-yl)butyl)-4-methyl-1,2,4-triazine-3,5(2H,4H)-dione], the “cytotoxicity (in words)” value was “not cytotoxic”.

On to `Cn1c(=O)cnn(CCCN2CCN(c3ncccc3-c3ccncc3)CC2)c1=O` [Compound 11a, 2-(3-(4-([3,4’-Bipyridin]-2-yl)piperazin-1-yl)propyl)-4-methyl-1,2,4-triazine-3,5(2H,4H)-dione], for which the “cytotoxicity (in words)” value is on record as “not cytotoxic”.
